# Assay: Equilibrium solubility of the compound at pH 6.8
# Assay type: physicochemical
# Settings: buffer
row,solubility thermodynamic [µM],SMILES
1,< 5,CC(C)(O)c1cnc(N2CCN(c3nnc(Cc4ccccc4)c4c3CCC4)CC2)cn1
2,5 to 20,C[C@@H]1CN(c2nnc(Cc3ccccc3)c3c2CCC3)CCN1c1cnc(C(C)(C)O)cn1

# — ChEMBL document CHEMBL3882730, “Organic Compounds as Smo Inhibitors” (2010)
